Experimental data as given in US20040157802A1, “Anti-microbial agents derived from methionine sulfoximine analogues” (priority 2002, published 2004).
Values joined by “and” are separate entries in the source; they are usually repeats but may differ in a detail not shown here. Equal entries are not always repeated.

Legend:
[1] = biological target: mammalian glutamine synthetase (MGS) (Homo sapiens, UniProt P15104); conditions: cited from earlier work
[2] = biological target: T1, mammalian gamma-glutamylcysteine synthetase (γ-GCS) (Homo sapiens, UniProt P48506); conditions: cited from earlier work
T1 sequence (P48506 1-637): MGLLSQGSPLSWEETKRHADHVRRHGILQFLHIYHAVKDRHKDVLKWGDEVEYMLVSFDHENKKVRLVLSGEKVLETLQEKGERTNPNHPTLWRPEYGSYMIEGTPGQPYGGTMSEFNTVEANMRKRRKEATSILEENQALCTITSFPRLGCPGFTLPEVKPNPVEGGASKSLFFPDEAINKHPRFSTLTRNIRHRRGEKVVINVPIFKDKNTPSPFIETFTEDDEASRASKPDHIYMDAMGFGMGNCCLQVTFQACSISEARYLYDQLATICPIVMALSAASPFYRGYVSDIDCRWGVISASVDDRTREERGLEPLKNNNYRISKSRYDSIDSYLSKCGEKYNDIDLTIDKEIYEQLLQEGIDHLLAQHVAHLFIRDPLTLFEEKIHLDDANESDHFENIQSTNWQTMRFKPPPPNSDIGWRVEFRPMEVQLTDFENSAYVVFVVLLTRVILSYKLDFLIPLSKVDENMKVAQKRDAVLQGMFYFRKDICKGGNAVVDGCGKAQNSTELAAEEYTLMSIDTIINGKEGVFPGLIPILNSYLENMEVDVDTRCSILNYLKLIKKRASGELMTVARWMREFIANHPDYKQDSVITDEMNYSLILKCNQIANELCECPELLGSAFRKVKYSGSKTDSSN

[3] = test system: M. tuberculosis Erdman strain; conditions: in vivo
[4] = cited from earlier work; for Estimtated Dose of L Isomer that Induces Convulsions in Mice (Relative to MSO): Table 1; for Estimtated Dose of L Isomer that Induces Convulsions in Mice (Relative to MSO) / Estimated Dose of L Isomer that Induces Convulsions in Mice (Relative to MSO): relative to MSO = 1; for Estimated Dose of L Isomer that Induces Convulsions in Mice (Relative to MSO): Table 3; for Dose that induces convulsions in mice relative to the dose of MSO: α-Et-MSO: convulsions in a minority of mice vs MSO in 100% of mice
[5] = test system: M. tuberculosis Erdman; experiment: M. tuberculosis growth in broth culture (CFU); format: cell-based; conditions: for Inhibition of growth of M. tuberculosis in broth culture: 10, 100 or 1000 μM, 6 weeks; for Inhibition of growth of M. tuberculosis in broth culture / Inhibition of M. tuberculosis in broth culture relative to MSO: Example 7; for Efficacy against M. tuberculosis growth in broth culture in comparison with MSO: 10, 100, 1000 μM, Example 6, FIG. 4; for Inhibition of M. tuberculosis in broth culture relative to MSO: at each of 10, 100, 1000 μM
[6] = cited from earlier work
[7] = test system: M. tuberculosis Erdman in human macrophages (THP-1 cells); conditions: 20, 200, 2000 μM, FIG. 5
[8] = BSO at doses that fully inhibit glutathione synthesis, guinea pigs; cited from earlier work

Chain of mammalian glutamine synthetase (MGS) (P15104 2-373 limits assumed): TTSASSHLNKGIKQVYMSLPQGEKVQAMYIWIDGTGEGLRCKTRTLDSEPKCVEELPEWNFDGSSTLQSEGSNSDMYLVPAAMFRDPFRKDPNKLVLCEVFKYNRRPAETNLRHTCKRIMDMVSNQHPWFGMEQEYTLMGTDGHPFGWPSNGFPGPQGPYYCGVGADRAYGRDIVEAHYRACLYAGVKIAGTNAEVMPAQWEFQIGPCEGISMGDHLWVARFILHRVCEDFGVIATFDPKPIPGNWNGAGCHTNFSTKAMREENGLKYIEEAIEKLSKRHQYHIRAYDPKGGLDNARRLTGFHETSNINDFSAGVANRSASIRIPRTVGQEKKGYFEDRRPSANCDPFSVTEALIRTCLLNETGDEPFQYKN

Compound	Inhibition of mammalian GS [1]	Inhibition of γ-GCS [2]	Protection from weight loss, drug administered alone [3]	Estimtated Dose of L Isomer that Induces Convulsions in Mice (Relative to MSO) [4]	Estimated Dose of L Isomer that Induces Convulsions in Mice (Relative to MSO) [4]	Inhibition of growth of M. tuberculosis in broth culture [5]	Metabolism [6]	Dose that induces convulsions in mice relative to the dose of MSO [4] [fold]	Inhibition of M. tuberculosis growth in human macrophages [7]	Efficacy against M. tuberculosis growth in broth culture in comparison with MSO [5]	Inhibition of M. tuberculosis in broth culture relative to MSO [5]	further results
CS(=N)(=O)CC[C@H](N)C(=O)O (stereo partly drawn) [MSO, L-methionine-SR-sulfoximine]	inhibit mammalian GS	inhibit γ-GCS	protected animals from weight loss	1	1	inhibited M. tuberculosis						MTD in the presence of ascorbate relative to MTD in the absence of ascorbate (guinea pig, in vivo): 4 fold; Maximum tolerated dose for guinea pigs infected with M. tuberculosis (guinea pig, in vivo): 1.5 mg/kg/day; Tolerability (guinea pig, in vivo): early weight loss; Fewer CFU of M. tuberculosis in organs than control animals [3]: approximately 1 log unit; Reduction of CFU of M. tuberculosis compared with control animals [3]: ~0.7 logs; Weight loss compared with untreated control animals [3]: protected from a precipitous decline in weight loss in the final week; Reduction of CFU in the lungs and spleen compared with untreated controls ([3]; ip): 2.5 logs
CCC(N)(CCS(C)(=N)=O)C(=O)O (racemic) [α-Et-MSO, α-ethyl-DL-methionine-SR-sulfoximine]	inhibit mammalian GS	specific to GS		>16	≧16	inhibited M. tuberculosis	resistant to metabolism	16	readily inhibited	as inhibitory to M. tuberculosis growth as MSO	as inhibitory or slightly more inhibitory than MSO	
CC(N)(CCS(C)(=N)=O)C(=O)O (racemic) [α-Me-MSO, α-methyl-DL-methionine-SR-sulfoximine]	inhibit mammalian GS	inhibit γ-GCS		8	8	inhibited M. tuberculosis	resistant to metabolism	~8	readily inhibited	as inhibitory to M. tuberculosis growth as MSO	slightly less inhibitory than MSO	
CCCCS(=N)(=O)CCC(N)C(=O)O [BSO, D, L-Buthionine-SR-Sulfoximine, reference compound]						did not						Animals killed [8]: 100%
O=C1O[C@H]([C@@H](O)CO)C(O)=C1O [ascorbate]												Well tolerated total dose of ascorbate (i.p., guinea pigs, 9 mmoles kg^−1 day^−1 not well tolerated): 3 mmol/kg/day
NNC(=O)c1ccncc1 [INH, isoniazid]			protected animals from weight loss									Reduction of CFU in lung and spleen below the level obtained with MSO [3]: ~1.5 logs and ~2.5 logs
